Blank lines part the entries; values can stand above or below the compound they belong to.
Experiment: solvent given as SMILES

Structure (SMILES): c1ccc(-c2nc(-c3ccccc3)nc(-c3ccc(-n4c5ccc(-c6ccc7sc8ccccc8c7c6)cc5c5cc(-c6ccc7sc8ccccc8c7c6)ccc54)cc3)n2)cc1
- emission maximum (in CCOC(C)=O): 473 nm
- emission maximum (in CN(C)C=O): 531 nm
- emission maximum (in Cc1ccccc1): 437 nm

Structure (SMILES): CN(C)c1ccc(-n2c(-c3ccncc3)nc3nccnc32)cc1
- emission maximum (in CC#N): 405 nm

Structure (SMILES): CCCCN(CCCC)c1ccc(C#Cc2cc(C#Cc3c(F)c(F)c(F)c(F)c3F)c(C#Cc3c(F)c(F)c(F)c(F)c3F)cc2C#Cc2ccc(N(CCCC)CCCC)cc2)cc1
- emission maximum (in ClCCl): 556 nm
- emission maximum (in c1ccccc1): 505 nm

Structure (SMILES): C(#Cc1ccccc1)C(C#Cc1ccccc1)=Cc1cccc(C=C(C#Cc2ccccc2)C#Cc2ccccc2)c1
- emission maximum (in ClC(Cl)Cl): 413 nm

Structure (SMILES): CCC1(CC)c2cc(B(c3c(C)cc(C)cc3C)c3c(C)cc(C)cc3C)ccc2-c2ccc(N(c3ccccc3)c3ccc4c(c3)C(CC)(CC)c3cc(B(c5c(C)cc(C)cc5C)c5c(C)cc(C)cc5C)ccc3-4)cc21
- emission maximum (in C1CCOC1): 490 nm
- emission maximum (in CC#N): 538 nm
- emission maximum (in CC(C)=O): 515 nm
- emission maximum (in CCCCCC): 445 nm
- emission maximum (in CN(C)C=O): 533 nm
- emission maximum (in Cc1ccccc1): 461 nm
- emission maximum (in ClC(Cl)Cl): 477 nm

Structure (SMILES): CCCCC1(CCCC)c2cc(/C=C/c3ccc(N(c4ccccc4)c4ccccc4)cc3)ccc2-c2cc3c(cc21)-c1ccc(/C=C/c2ccc(N(c4ccccc4)c4ccccc4)cc2)cc1C3(CCCC)CCCC
- emission maximum (in Cc1ccccc1): 450 nm

Structure (SMILES): CC1(C)C(/C=C/c2cc3ccc(O)cc3oc2=O)=[N+](CCCS(=O)(=O)[O-])c2ccc3c(S(=O)(=O)O)cc(S(=O)(=O)O)cc3c21
- emission maximum (in CCO): 659 nm
- emission maximum (in CS(C)=O): 625 nm
- emission maximum (in O): 643 nm

Structure (SMILES): CC(C)n1c2cc(O)c(F)cc2c(=O)c2cc(F)c(O)cc21
- emission maximum (in CCO): 438 nm

Structure (SMILES): O=C1OC(=O)c2ccc(N(c3ccccc3)c3c4ccccc4cc4ccccc34)c3cccc1c23
- emission maximum (in C1CCOC1): 591 nm
- emission maximum (in CCCCCC): 514 nm
- emission maximum (in ClCCl): 608 nm
- emission maximum (in c1ccccc1): 560 nm

Structure (SMILES): CCCC1=Cc2nc1ccc1[nH]c(cc1CCC)c1nc(c(OC(=O)CCCC(=O)OC(C)(C)C)cc3[nH]c2cc3CCC)C(CCC)=C1
- emission maximum (in Cc1ccccc1): 651 nm

Structure (SMILES): CN1CCN(c2ccc3c4c(cccc24)C(=O)c2ccccc2-3)CC1
- emission maximum (in C1CCCCC1): 533 nm
- emission maximum (in C1CCOC1): 593 nm
- emission maximum (in C1COCCO1): 584 nm
- emission maximum (in CC1COC(=O)O1): 619 nm
- emission maximum (in CC#N): 619 nm
- emission maximum (in CC(C)=O): 615 nm
- emission maximum (in CCCCCCCCO): 626 nm
- emission maximum (in CCCCCO): 635 nm
- emission maximum (in CCCCO): 632 nm
- emission maximum (in CCCO): 637 nm
- emission maximum (in CCO): 640 nm
- emission maximum (in CCOC(C)=O): 595 nm
- emission maximum (in CN(C)C=O): 621 nm
- emission maximum (in CO): 645 nm
- emission maximum (in CS(C)=O): 624 nm
- emission maximum (in Cc1ccccc1): 569 nm
- emission maximum (in ClC(Cl)Cl): 601 nm

Structure (SMILES): CCOC(=O)COc1ccc(/C=C/C2=C3c4ccccc4C(c4[nH]c(C)cc4C)=[N+]3[B-](F)(F)n3c(C)cc(C)c32)cc1
- emission maximum (in C1CCOC1): 684 nm
- emission maximum (in CC#N): 681 nm
- emission maximum (in CCCCCC): 679 nm
- emission maximum (in CO): 680 nm
- emission maximum (in Cc1ccccc1): 690 nm
- emission maximum (in ClCCl): 687 nm

Structure (SMILES): CN(C)c1[se]c(-c2ccc(Cl)cc2)nc1-c1ccccc1
- emission maximum (in ClC(Cl)Cl): 455 nm

Structure (SMILES): CC1(C)c2ccccc2N(c2ccc(-c3nc4cc(C#N)c(C#N)cc4nc3-c3ccc(N4c5ccccc5C(C)(C)c5ccccc54)cc3)cc2)c2ccccc21
- emission maximum (in Cc1ccccc1): 620 nm

Structure (SMILES): CCN(C(C)=O)c1cc2c(cc1C)C(c1ccccc1C(=O)O)=C1CCCC(/C=C/C3=[N+](C)c4ccc5ccccc5c4C3(C)C)=C1O2
- emission maximum (in CCO): 715 nm

Structure (SMILES): CC1=CC(C)(C)N(C)c2cc3c(cc21)C(c1ccc(Br)cc1)=c1cc2c(cc1O3)=[N+](C)C(C)(C)C=C2C
- emission maximum (in CCO): 616 nm

Structure (SMILES): COC(C)CC1=N/C(=C\c2cccc(N(C)C)c2)C(=O)N1C (stereo unspecified)
- emission maximum (in C1CCOC1): 569 nm
- emission maximum (in CC#N): 632 nm
- emission maximum (in CCCCCC): 495 nm

Structure (SMILES): CCCCn1c2ccc(-c3ccccc3)cc2c2ccc3c4cc(-c5ccccc5)ccc4n(CCCC)c3c21
- emission maximum (in ClC(Cl)Cl): 414 nm

Structure (SMILES): CCN(CC)c1ccc2cc(C#N)c(=N)oc2c1
- emission maximum (in ClCCl): 460 nm

Structure (SMILES): Clc1ccc(-c2nc(-c3ccccc3)sc2N(c2ccccc2)c2ccccc2)cc1
- emission maximum (in ClC(Cl)Cl): 463 nm

Structure (SMILES): CC1(C)Nc2cc3nc4cc(Br)c(Br)cc4nc3cc2N1
- emission maximum (in CCO): 508 nm

Structure (SMILES): c1ccc(-n2c(-c3ccc(-n4c5ccccc5c5ccccc54)cc3)nc3nccnc32)cc1
- emission maximum (in CC#N): 490 nm

Structure (SMILES): COc1cc(-c2nc(-c3ccccc3)c3ccccn23)ccc1O
- emission maximum (in CC#N): 489 nm

Structure (SMILES): CC1(C)c2ccccc2N(c2ccc(-c3nc4c(C#N)ccc(C#N)c4nc3-c3ccc(N4c5ccccc5C(C)(C)c5ccccc54)cc3)cc2)c2ccccc21
- emission maximum (in Cc1ccccc1): 663 nm

Structure (SMILES): O=P1(c2ccccc2)C(c2cc(C(F)(F)F)cc(C(F)(F)F)c2)=Cc2c3ccc4cccc5ccc(c6cc(-c7ccc(N(c8ccccc8)c8ccccc8)cc7)n1c26)c3c45 (stereo unspecified)
- emission maximum (in C1CCCCC1): 558 nm
- emission maximum (in C1CCOC1): 620 nm
- emission maximum (in C1COCCO1): 595 nm
- emission maximum (in CC#N): 645 nm
- emission maximum (in CC(C)=O): 635 nm
- emission maximum (in CO): 636 nm
- emission maximum (in Cc1ccccc1): 586 nm
- emission maximum (in ClC(Cl)Cl): 603 nm
- emission maximum (in ClCCl): 622 nm

Structure (SMILES): COc1ccc2oc(-c3cc4cc(OC)ccc4oc3=O)cc2c1
- emission maximum (in CC#N): 480 nm
- emission maximum (in CCOC(C)=O): 443 nm
- emission maximum (in CS(C)=O): 484 nm
- emission maximum (in Cc1ccccc1): 446 nm

Structure (SMILES): Nc1ccc(-c2ccc(N)cc2)cc1
- emission maximum (in C1CCOC1): 394 nm
- emission maximum (in C1COCCO1): 392 nm
- emission maximum (in CC#N): 393 nm
- emission maximum (in CCCCCC): 373 nm
- emission maximum (in CCOC(C)=O): 391 nm
- emission maximum (in CN(C)C=O): 403 nm
- emission maximum (in CO): 397 nm
- emission maximum (in CS(C)=O): 404 nm
- emission maximum (in Cc1ccccc1): 395 nm
- emission maximum (in ClC(Cl)Cl): 384 nm
- emission maximum (in ClCCl): 384 nm
- emission maximum (in O): 401 nm

Structure (SMILES): CC(=O)c1ccc(-c2cccc3ncc(-c4ccccc4)n23)cc1
- emission maximum (in ClCCl): 506 nm

Structure (SMILES): CC(C)(C)c1ccc2c(c1)c1cc(C(C)(C)C)ccc1n2-c1ccc(-c2ccc3c(c2)C2(c4cc(-c5ccc(-n6c7ccc(C(C)(C)C)cc7c7cc(C(C)(C)C)ccc76)cc5)ccc4-3)c3ccccc3S(=O)(=O)c3ccccc32)cc1
- emission maximum (in ClCCl): 449 nm
- emission maximum (in c1cc(-n2c3ccccc3c3ccccc32)cc(-n2c3ccccc3c3ccccc32)c1): 434 nm

Structure (SMILES): Cc1cc(C)c(B(c2ccc(N3c4ccccc4Oc4ccccc43)cc2)c2c(C)cc(C)cc2C)c(C)c1
- emission maximum (in C1CCCCC1): 475.13 nm
- emission maximum (in C1CCOC1): 602.56 nm
- emission maximum (in CN(C)C=O): 665.64 nm
- emission maximum (in Cc1ccccc1): 540 nm
- emission maximum (in ClCCl): 598.46 nm

Structure (SMILES): CC[N+](CC)=c1ccc2cc3oc4cc(N)ccc4c3oc-2c1
- emission maximum (in CCO): 629 nm
- emission maximum (in ClCCl): 623 nm
- emission maximum (in O): 627 nm

Structure (SMILES): COC(=O)c1nc2cnc(N)nc2n1Cc1ccccc1
- emission maximum (in C1COCCO1): 386 nm
- emission maximum (in CC#N): 388 nm
- emission maximum (in CO): 412 nm
- emission maximum (in ClCCl): 379 nm
- emission maximum (in O): 420 nm

Structure (SMILES): c1cc2ccc3ccc4cc3c2cc1CCCCCCc1ccc2ccc3ccc-4cc3c2c1
- emission maximum (in Cc1ccccc1): 376 nm

Structure (SMILES): CCN(CC)c1ccc(-c2ccc(-c3nc4ccccc4c(=O)[nH]3)s2)cc1
- emission maximum (in CC#N): 541 nm
- emission maximum (in Cc1ccccc1): 490 nm

Structure (SMILES): Cc1cc(-c2ccc(-c3n(C)c4ccccc4[n+]3C)cc2)ccc1-c1ccc(-c2n(C)c3ccccc3[n+]2C)cc1
- emission maximum (in O): 399 nm

Now from value to compound:

- emission maximum (in ClCCl): 783 nm
Structure (SMILES): Cc1c2cc3c(-c4ccccc4)c4c(c(-c5ccccc5)c3cc2c2n1[B-](F)(F)[n+]1c(C)c3cc5c(-c6ccccc6)c6c7cccc8cccc(c6c(-c6ccccc6)c5cc3c1=C2c1ccccc1)c87)-c1cccc2cccc-4c12

- emission maximum (in ClC(Cl)Cl): 448 nm
Structure (SMILES): c1ccc2c(c1)oc1nc3oc4ccc(-n5c6ccccc6c6ccccc65)cc4c3cc12

- emission maximum (in ClCCl): 355 nm
Structure (SMILES): Cc1cc2ccccc2c2c1c1ccccc1n2C(=O)OC(C)(C)C

- emission maximum (in C1CCCCC1): 645 nm
- emission maximum (in CCOC(C)=O): 664 nm
Structure (SMILES): CC1=[N+]2C(=C(c3ccc(C(=O)c4ccccc4)cc3)c3ccc(C)n3[B-]2(F)F)C=C1c1cc2n(c1)[B-](F)(F)[N+]1=CC=CC1=C2c1c(C)cc(C)cc1C

- emission maximum (in ClCCl): 527 nm
Structure (SMILES): O=C(c1ccc2c3c(cccc13)-c1cccc3c1C2CC=C3)c1c(CCc2ccccc2)c2ccc3cccc4c5cccc6ccc1c(c65)c2c34 (stereo unspecified)

- emission maximum (in ClCCl): 558 nm
Structure (SMILES): CC1=C(I)C(C)=[N+]2C1=C(c1c(-c3ccccn3)nc3ccccn13)c1c(C)cc(C)n1[B-]2(F)F

- emission maximum (in ClC(Cl)Cl): 556 nm
Structure (SMILES): CCC1=C(C)C2C(c3ccc(-c4ccc(-c5nc6c7ccccc7c7ccccc7c6n5-c5ccc(C(C)(C)C)cc5)cc4)cc3)c3c(C)c(CC)c(C)n3[B-](F)(F)[N+]2=C1C (stereo unspecified)

- emission maximum (in CCCCCC): 449 nm
Structure (SMILES): COC(=O)c1c(C(=O)OC)c2ccc(C)nn2c1C

- emission maximum (in CC#N): 308 nm
Structure (SMILES): Cc1cc(=O)[nH]c(=O)[nH]1

- emission maximum (in ClCCl): 567 nm
Structure (SMILES): CCCCC1=C(CCCC)c2cccc3c2c(cc2nc4ccccc4nc23)O1

- emission maximum (in CC#N): 372 nm
Structure (SMILES): C[n+]1ccc(/C=C/c2cc[n+](C)cc2)cc1

- emission maximum (in CCO): 441 nm
- emission maximum (in ClCCl): 414 nm
Structure (SMILES): c1ccc(-c2c3ccccc3c(-c3cncnc3)c3ccccc23)cc1

- emission maximum (in ClC(Cl)Cl): 403 nm
Structure (SMILES): Cc1ccc(C#Cc2ccc(C#Cc3ccc(C#Cc4ccccc4C#N)cc3C#N)cc2C#N)cc1

- emission maximum (in CCO): 549 nm
Structure (SMILES): Nc1cc2nc3cc(Cl)c(Cl)cc3nc2cc1N

- emission maximum (in CC#N): 460 nm
Structure (SMILES): CC(C)(C)Nc1oc(C=Cc2ccccc2)c(C(=O)OC(C)(C)C)c1C(=O)OC(C)(C)C

- emission maximum (in ClCCl): 681 nm
Structure (SMILES): COC(=O)CCC1=CC(C#Cc2cccs2)=[N+]2C1=Cc1c(CCC(=O)OC)cc(C#Cc3cccs3)n1[B-]2(F)F

- emission maximum (in ClC(Cl)Cl): 635 nm
Structure (SMILES): CC1(C)CC[N+]2=c3c(cc4c(c31)Oc1cc3c(cc1C=4c1ccccc1C(=O)O)C(c1ccccc1C(=O)O)=c1cc4c5c(c1O3)C(C)(C)CC[N+]=5CCC4)CCC2

- emission maximum (in ClCCl): 586 nm
Structure (SMILES): CC(C)(C)c1cc(-n2c(-c3ccc(C(=C(c4ccccc4)c4ccccc4)c4ccccc4)cc3)cc3c2cc(-c2ccc(C(=C(c4ccccc4)c4ccccc4)c4ccccc4)cc2)n3-c2cc(C(C)(C)C)cc(C(C)(C)C)c2)cc(C(C)(C)C)c1

From the Deep4Chem optical property database
